Data set [1] relates to plasma DPP IV. The data set is described as follows: Plasma DPP IV activity after oral administration, Rhesus monkey. The data set is classed as in vivo. Particulars: 1 mg/kg oral, 24 hours post dose. On the procedure:
The effect of 1-[(3-cyano-pyridin-2-yl)methyl]-3-methyl-7-(2-butyn-1-yl)-8-[3-(R)-amino-piperidin-1-yl]-xanthine on plasma DPP IV activity after oral administration was investigated in the rat, the Beagle dog and the Rhesus monkey. These investigations were conducted as described in the following.
Overnight fasted Rhesus monkeys (n=4; 2 males and 2 females) were administered oral doses of 1-[(3-cyano-pyridin-2-yl)methyl]-3-methyl-7-(2-butyn-1-yl)-8-[3-(R)-amino-piperidin-1-yl]-xanthine monohydrochloride at 1 mg/kg bw. Blood samples were drawn from a butterfly that was inserted into a forearm vein of restrained monkeys. Blood was collected in EDTA tubes prior to administration of 1-[(3-cyano-pyridin-2-yl)methyl]-3-methyl-7-(2-butyn-1-yl)-8-[3-(R)-amino-piperidin-1-yl]-xanthine monohydrochloride and subsequently at 0.5, 1, 2, 4, 8, 24, 48, and 72 hour time points post dose. Plasma was prepared following blood collection and frozen for determination of DPP-IV activity.

Data set [2] is described as follows: Single dose study (1.0/5.0/10.0 mg/kg) in cats: adverse events. Format: in vivo, cat. Particulars: single oral 1, 5, 10 mg/kg. The protocol: The aim of this study was to investigate the PK/PD behaviour of 1-[(3-cyano-pyridin-2-yl)methyl]-3-methyl-7-(2-butyn-1-yl)-8-[3-(R)-amino-piperidin-1-yl]-xanthine in the cat following a single oral administration of 0, 1, 5 and 10 mg/kg body weight (dosages were based on the free base: 1 mg 1-[(3-cyano-pyridin-2-yl)methyl]-3-methyl-7-(2-butyn-1-yl)-8-[3-(R)-amino-piperidin-1-yl]-xanthine monohydrochloride corresponds to 0.923 mg 1-[(3-cyano-pyridin-2-yl)methyl]-3-methyl-7-(2-butyn-1-yl)-8-[3-(R)-amino-piperidin-1-yl]-xanthine free base).
Twelve clinically healthy male adult domestic short hair cats with a body weight range of 3.5-4.7 kg were used in this study. All animals were treated orally once via a stomach tube. Blood samples for pharmacokinetic and pharmacodynamic (DPP IV activity) investigations were drawn at 0 h (i.e. prior to treatment), 30 min as well as 1, 2, 4, 8, 8.5, 9, 12, 24, 36, 48, 72, 84 and 96 h after treatment. Blood samples for pharmacodynamic (glucagon-like peptide 1 concentrations) investigations were drawn at −16 (i.e. prior to feeding), −15.5, −15 h as well as at 8 h (i.e. prior to feeding), 8.5 and 9 h after treatment.

Data set [3] has as its target T1, plasma DPP IV (Homo sapiens, UniProt P27487).
T1 construct: from tissue; host or cells: human plasma
The data set is described as follows: Inhibition of plasma DPP IV activity in vitro, human plasma. Format: biochemical. On the procedure: (§1) Studies were also conducted to assess the inhibitory effect of this compound on plasma DPP IV activity in several species.

The test system of data set [4] is diabetic db/db mice. Nature of the data set: Delayed OGTT in diabetic db/db mice. Format: in vivo, mouse. Particulars: 1 mg/kg 16 hours before the test. On the procedure:
A delayed oral glucose tolerance test (OGTT) was applied to diabetic db/db mice and diabetic ZDF rats, as describes in the following.
Male obese diabetic db/db mice (C57BL/KSJ@Rj-db) were obtained from Janvier (France). Animals were fed ad libitum with a standard pelleted diet (Diet No. 3438 [containing 19% protein, 4.5% fat], Provimi Kliba, Switzerland) and had free access to water. Animals were housed in groups with a 12 h/12 h light/dark cycle (lights out between 6 p.m. and 6 a.m.). The mice used for these experiments were between 9 and 10 weeks of age.
The day before the OGTT, a blood sample from db/db mice or ZDF rats fasted for 2 hours was obtained by cutting the tip of the tail without anaesthesia and the animals were randomized for glucose (n=7 per group). The animals were fed again for 2 hours and then orally administered with either vehicle or 1-[(3-cyano-pyridin-2-yl)methyl]-3-methyl-7-(2-butyn-1-yl)-8-[3-(R)-amino-piperidin-1-yl]-xanthine monohydrochloride at doses between 0.3 and 3 mg/kg bw. A basal blood sample (pre-load) was obtained the next morning after overnight fasting for 16 hours by cutting the tip of the tail without anaesthesia. […] Additional blood samples were taken from the tip of the tail 30 min, 60 min, 90 min, 120 min, and 180 min after the glucose load, and blood glucose was measured. […]

Data set [5] has as its target T2, plasma DPP IV (Mus musculus, UniProt P28843).
T2 construct: from tissue; host or cells: mouse plasma
Nature of the data set: Inhibition of plasma DPP IV activity in vitro, mouse plasma. Format: biochemical. The protocol:
as §1

The target in data set [6] is T3, plasma DPP-4 (Felis catus, UniProt Q9N2I7).
T3 construct: from tissue; host or cells: cat plasma (3 cats), diluted 70-fold
Nature of the data set: Inhibition of DPP-4 in cat plasma (in vitro). Format: biochemical. The protocol:
Plasma obtained from 3 different cats and one Wistar rat as control were each incubated with a range of concentrations of 1-[(3-cyano-pyridin-2-yl)methyl]-3-methyl-7-(2-butyn-1-yl)-8-[3-(R)-amino-piperidin-1-yl]-xanthine monohydrochloride. Plasma DPP-4 activity was measured in the following way (which is also described in Eckhard et al. (2007), J. Med. Chem., Vol. 50, 6450-6453, Supporting Information).
Rat and cat plasma was used for ex vivo measurement of DDP-4 activity. Blood was collected in EDTA tubes and subjected to centrifugation. The resultant supernatant was aliquoted and frozen. Plasma DPP-4 activity was assayed after dilution (140-fold for rat plasma; 70-fold for cat plasma) with assay buffer (100 mM Tris-HCl, 100 mM NaCl, pH 7.8; compound stock solutions in dimethylsulfoxide (DMSO), final DMSO concentration in the assay 1%) prior to use.
The assay itself was initiated by mixing 50 μl of diluted plasma with 50 μl of diluted substrate (Ala-Pro-AFC) and performed in black flat-bottom 96-well plates. The plates were then incubated at room temperature for 1 h and fluorescence was measured at excitation/emission wavelengths of 405/535 nm. Data analysis was performed by calculating the fluorescence in the presence of the test compound compared to the fluorescence of the vehicle control after subtracting the background fluorescence.
From a plot of concentration against activity (equivalent to fluorescence units) kinetic data could be collected, e.g. the half-maximal inhibitory concentration (IC50) of the tested compound in the different animals, which data are given in the following Table 2.

Structures can show the parent of a compound that is named as a salt.

We go through one molecule from patent US20140228287A1, “1-[(3-CYANO-PYRIDIN-2-YL)METHYL]-3-METHYL-7-(2-BUTYN-1-YL)-8-[3-(R)-AMINO-PIPERIDIN-1-YL]-AXANTHINE FOR THE TREATMENT OF A METABOLIC DISORDER OF A PREDOMINANTLY CARNIVOROUS NON-HUMAN ANIMAL” (BOEHRINGER INGELHEIM VETMEDICA GMBH, priority 2010, published 2014).

T3 sequence (Q9N2I7 38-765 limits assumed): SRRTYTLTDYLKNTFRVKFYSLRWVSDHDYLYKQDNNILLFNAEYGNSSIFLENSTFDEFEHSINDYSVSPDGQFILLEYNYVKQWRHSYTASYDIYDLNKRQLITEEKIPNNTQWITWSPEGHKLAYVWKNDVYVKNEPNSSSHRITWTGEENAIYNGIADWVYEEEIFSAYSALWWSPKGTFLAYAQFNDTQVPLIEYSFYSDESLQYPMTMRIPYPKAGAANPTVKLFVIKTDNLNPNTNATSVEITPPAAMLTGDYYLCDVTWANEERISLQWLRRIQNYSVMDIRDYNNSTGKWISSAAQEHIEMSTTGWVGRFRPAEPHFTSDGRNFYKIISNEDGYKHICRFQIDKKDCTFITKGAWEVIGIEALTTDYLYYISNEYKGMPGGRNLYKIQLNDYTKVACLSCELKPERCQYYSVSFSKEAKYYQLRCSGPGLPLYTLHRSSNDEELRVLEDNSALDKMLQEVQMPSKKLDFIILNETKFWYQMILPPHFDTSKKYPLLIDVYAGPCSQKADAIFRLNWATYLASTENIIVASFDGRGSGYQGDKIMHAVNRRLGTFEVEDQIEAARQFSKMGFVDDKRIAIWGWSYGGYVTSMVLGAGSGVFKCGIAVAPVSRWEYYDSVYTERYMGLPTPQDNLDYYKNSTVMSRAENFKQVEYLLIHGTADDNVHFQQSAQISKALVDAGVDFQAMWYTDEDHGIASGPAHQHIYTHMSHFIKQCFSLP
T1 sequence (P27487 39-766 limits assumed): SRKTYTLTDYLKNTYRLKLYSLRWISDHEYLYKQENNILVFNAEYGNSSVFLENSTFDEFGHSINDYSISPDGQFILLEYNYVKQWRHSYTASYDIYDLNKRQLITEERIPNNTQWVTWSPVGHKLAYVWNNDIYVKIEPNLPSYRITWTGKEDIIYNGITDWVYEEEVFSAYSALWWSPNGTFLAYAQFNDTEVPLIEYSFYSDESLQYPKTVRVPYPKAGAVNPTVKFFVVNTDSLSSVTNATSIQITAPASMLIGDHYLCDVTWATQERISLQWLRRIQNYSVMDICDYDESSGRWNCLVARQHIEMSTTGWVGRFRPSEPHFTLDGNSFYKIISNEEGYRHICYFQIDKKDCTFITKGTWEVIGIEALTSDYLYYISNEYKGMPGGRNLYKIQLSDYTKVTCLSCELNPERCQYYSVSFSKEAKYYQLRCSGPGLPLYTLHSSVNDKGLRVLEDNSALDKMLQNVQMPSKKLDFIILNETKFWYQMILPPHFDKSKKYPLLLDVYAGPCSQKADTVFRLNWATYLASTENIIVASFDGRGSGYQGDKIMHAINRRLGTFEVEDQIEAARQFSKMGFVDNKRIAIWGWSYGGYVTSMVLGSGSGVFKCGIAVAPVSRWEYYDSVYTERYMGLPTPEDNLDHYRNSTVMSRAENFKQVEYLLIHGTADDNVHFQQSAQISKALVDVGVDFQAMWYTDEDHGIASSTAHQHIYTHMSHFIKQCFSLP
T2 sequence (P28843 37-760 limits assumed): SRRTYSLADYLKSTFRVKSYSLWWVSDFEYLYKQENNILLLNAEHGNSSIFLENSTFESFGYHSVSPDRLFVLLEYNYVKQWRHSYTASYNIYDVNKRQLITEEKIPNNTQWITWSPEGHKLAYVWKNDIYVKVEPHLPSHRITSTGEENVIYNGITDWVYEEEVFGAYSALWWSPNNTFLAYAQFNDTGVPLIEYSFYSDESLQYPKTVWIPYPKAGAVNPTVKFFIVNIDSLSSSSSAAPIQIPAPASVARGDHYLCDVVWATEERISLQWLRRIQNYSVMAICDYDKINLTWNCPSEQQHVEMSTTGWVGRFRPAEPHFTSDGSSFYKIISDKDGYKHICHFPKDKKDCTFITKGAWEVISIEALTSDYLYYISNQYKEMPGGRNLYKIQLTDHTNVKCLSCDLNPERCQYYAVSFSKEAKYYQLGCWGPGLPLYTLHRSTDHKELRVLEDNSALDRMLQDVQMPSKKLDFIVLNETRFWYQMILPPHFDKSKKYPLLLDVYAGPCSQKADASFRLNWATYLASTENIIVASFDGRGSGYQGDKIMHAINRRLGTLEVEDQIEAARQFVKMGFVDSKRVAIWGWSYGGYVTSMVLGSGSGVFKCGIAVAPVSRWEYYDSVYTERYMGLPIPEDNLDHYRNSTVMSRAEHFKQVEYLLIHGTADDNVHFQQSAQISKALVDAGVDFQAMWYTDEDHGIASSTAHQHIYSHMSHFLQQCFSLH

By IC50 is commonly meant the concentration needed to halve the response being measured. On to `CC#CCn1c(N2CCC[C@@H](N)C2)nc2c1c(=O)n(Cc1ncccc1C#N)c(=O)n2C` [1-[(3-cyano-pyridin-2-yl)methyl]-3-methyl-7-(2-butyn-1-yl)-8-[3-(R)-amino-piperidin-1-yl]-xanthine monohydrochloride], for which, in data set [1], the “inhibition of plasma DPP IV activity” value is 54%. Also, the adverse events result in data set [2] is listed as “No specific adverse events were observed”. The IC50 in data set [3] was around 0.6 nM; in data set [5] it was around 1.7 nM; in data set [6] (cat 1 plasma), 1.94 nM; in data set [6] (cat 2 plasma) it was 1.45 nM; in data set [6] (cat 3 plasma), 1.84 nM. In addition, the “reduction of glucose AUC in OGTT” value in data set [4] amounted to 39%. Besides, the hillslope in data set [6] (cat 1 plasma) is listed as −0.7518; in data set [6] (cat 2 plasma) it was −0.7102; in data set [6] (cat 3 plasma), −0.7615.
